# According to paper PMC3444433, “The Drosophila nicotinic acetylcholine receptor subunits Dα5 and Dα7 form functional homomeric and heteromeric ion channels” (BMC Neuroscience, 2012):
# Legend:
# Assay in all cases: two-electrode voltage clamp, Xenopus oocytes
# Type in all cases: cell-based
# Details in all cases: read-out: EC 50(μM or nM)*
# [1] = molecular target: T1, homomeric Dα7 nAChR (Drosophila melanogaster, UniProt Q9VWI9)
# T1 construct: gene nAChRalpha7; intact subunit; pGEMHE cRNA in Xenopus oocytes with chaperone C. elegans RIC-3; homopentamer
# T1 sequence (Q9VWI9 59-560): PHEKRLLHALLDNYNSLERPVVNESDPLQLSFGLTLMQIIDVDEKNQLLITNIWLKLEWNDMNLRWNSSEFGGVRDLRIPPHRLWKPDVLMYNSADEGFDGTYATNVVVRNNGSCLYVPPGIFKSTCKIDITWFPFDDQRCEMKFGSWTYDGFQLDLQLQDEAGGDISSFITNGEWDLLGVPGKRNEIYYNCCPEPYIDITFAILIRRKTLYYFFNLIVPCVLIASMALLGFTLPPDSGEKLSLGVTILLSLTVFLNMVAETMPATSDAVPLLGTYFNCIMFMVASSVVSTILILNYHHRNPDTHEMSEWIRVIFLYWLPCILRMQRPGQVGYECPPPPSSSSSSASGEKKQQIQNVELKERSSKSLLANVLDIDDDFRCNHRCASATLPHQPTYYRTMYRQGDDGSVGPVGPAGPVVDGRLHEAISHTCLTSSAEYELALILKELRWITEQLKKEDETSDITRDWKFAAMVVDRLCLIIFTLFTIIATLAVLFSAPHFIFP
# Source text: two-electrode voltage clamp, Xenopus oocytes on homomeric Dα7 nAChR
# [2] = molecular target: T2, Dα5 + Dα7 nAChR (Drosophila melanogaster, UniProt Q8T7V5+Q9VWI9)
# T2 construct: gene nAChRalpha5; intact subunits co-injected as cRNA in Xenopus oocytes with C. elegans RIC-3; pairwise heteromer not proven (may be homomers); stoichiometry unknown
# T2 sequence (Q8T7V5 1-807): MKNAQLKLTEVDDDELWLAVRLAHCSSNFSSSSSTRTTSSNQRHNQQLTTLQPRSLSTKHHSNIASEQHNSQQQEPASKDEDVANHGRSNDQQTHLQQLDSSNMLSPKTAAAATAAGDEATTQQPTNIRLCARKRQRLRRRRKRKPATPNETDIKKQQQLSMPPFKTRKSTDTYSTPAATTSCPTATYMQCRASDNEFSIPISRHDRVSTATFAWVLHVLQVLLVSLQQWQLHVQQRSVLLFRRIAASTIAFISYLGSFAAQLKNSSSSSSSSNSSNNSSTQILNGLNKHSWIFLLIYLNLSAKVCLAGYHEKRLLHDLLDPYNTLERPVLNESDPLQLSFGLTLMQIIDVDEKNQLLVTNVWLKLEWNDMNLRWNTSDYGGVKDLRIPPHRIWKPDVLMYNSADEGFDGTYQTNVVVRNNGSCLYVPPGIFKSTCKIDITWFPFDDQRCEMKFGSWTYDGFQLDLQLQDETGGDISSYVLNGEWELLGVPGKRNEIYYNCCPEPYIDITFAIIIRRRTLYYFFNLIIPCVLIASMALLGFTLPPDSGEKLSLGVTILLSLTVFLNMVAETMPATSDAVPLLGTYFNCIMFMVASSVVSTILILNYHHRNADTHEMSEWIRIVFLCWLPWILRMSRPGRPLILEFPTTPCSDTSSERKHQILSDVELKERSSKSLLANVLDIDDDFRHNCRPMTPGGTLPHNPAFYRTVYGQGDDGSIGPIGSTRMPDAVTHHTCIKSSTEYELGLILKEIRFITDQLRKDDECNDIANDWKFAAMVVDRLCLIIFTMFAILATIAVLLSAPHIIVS
# T2 sequence (Q9VWI9 59-560): T1 sequence (Q9VWI9 59-560)
# Source text: two-electrode voltage clamp, Xenopus oocytes on Dα5 + Dα7 nAChR
# [3] = molecular target: T3, homomeric Dα5 nAChR (Drosophila melanogaster, UniProt Q8T7V5)
# T3 construct: gene nAChRalpha5; full-length, 807 residues, unusually large N-terminal domain; pGEMHE cRNA in Xenopus oocytes with chaperone C. elegans RIC-3; homopentamer
# T3 sequence (Q8T7V5 1-807): T2 sequence (Q8T7V5 1-807)
# Source text: two-electrode voltage clamp, Xenopus oocytes on homomeric Dα5 nAChR
# [4] = molecular target: T4, Dα5 + Dα6 nAChR (Drosophila melanogaster, UniProt Q8T7V5+Q9VL79)
# T4 construct: gene nAChRalpha5; intact subunits co-injected as cRNA in Xenopus oocytes with C. elegans RIC-3; pairwise heteromer not proven (may be homomeric Dα5); stoichiometry unknown
# T4 sequence (Q8T7V5 1-807): T2 sequence (Q8T7V5 1-807)
# T4 sequence (Q9VL79 28-494): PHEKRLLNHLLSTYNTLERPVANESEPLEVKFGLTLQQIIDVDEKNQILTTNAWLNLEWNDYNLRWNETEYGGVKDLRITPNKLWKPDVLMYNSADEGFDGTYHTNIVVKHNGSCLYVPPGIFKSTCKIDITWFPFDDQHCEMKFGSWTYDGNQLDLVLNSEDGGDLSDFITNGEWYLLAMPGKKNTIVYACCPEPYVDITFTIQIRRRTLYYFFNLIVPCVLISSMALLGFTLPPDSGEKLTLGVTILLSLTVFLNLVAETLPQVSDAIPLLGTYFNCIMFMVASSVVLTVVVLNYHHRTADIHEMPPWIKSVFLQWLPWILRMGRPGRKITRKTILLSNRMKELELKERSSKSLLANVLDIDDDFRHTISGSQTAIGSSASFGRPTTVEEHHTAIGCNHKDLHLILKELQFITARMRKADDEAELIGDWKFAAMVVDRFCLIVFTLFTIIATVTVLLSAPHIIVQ
# Source text: two-electrode voltage clamp, Xenopus oocytes on Dα5 + Dα6 nAChR
smiles,measurement,setting,value
CC(=O)OCC[N+](C)(C)C [acetylcholine],EC50,[1],6.7 ± 1.7 µM
same,EC50,[2],1.6 ± 0.3 µM
same,EC50,[3],8.8 ± 2.5 µM
same,EC50,[4],8.6 ± 2.4 µM
